Measurements taken from ChEMBL document CHEMBL3785042, “Discovery of MK-8831, A Novel Spiro-Proline Macrocycle as a Pan-Genotypic HCV-NS3/4a Protease Inhibitor” (ACS Med Chem Lett, 2016).
One block for each compound: values may come before it.

Legend:
[1] = AUC (0 to 24 hrs) in rat at 5 mg/kg, po; format: ADME, organism-based; set-up: dose 5 mg/kg, time < 24 hr, route oral; conditions: in vivo
[2] = Inhibition of HCV genotype 3a full length NS3/4A protease using Ac-C(Eu)DDMEEAbu[COO]ASK(QSY7)-amide as substrate preincubated for 30 mins followed by substrate addition measured after 2.5 hrs by TRF assay; set-up: species or system Hepatitis C virus subtype 3a
Canis familiaris [3] = experiment: Toxicity in conscious telemetered dog assessed as effect on respiratory function; format: organism-based, Canis lupus familiaris; conditions: in vivo
Cytochrome P450 2D6 = Cytochrome P450 2D6 (Homo sapiens, UniProt P10635); experiment: Inhibition of CYP2D6 (unknown origin) up to 50 uM; format: ADME
Canis familiaris [4] = experiment: Toxicity in conscious telemetered dog assessed as effect on body temperature; format: organism-based, Canis lupus familiaris; conditions: in vivo
Cytochrome P450 2C9 = Cytochrome P450 2C9 (Homo sapiens, UniProt P11712); experiment: Inhibition of CYP2C9 (unknown origin) up to 50 uM; format: ADME
[5] = Inhibition of HCV genotype 1b NS3/4A protease D168Y mutant using Ac-C(Eu)DDMEEAbu[COO]ASK(QSY7)-amide as substrate preincubated for 30 mins followed by substrate addition measured after 2.5 hrs by TRF assay; set-up: species or system Hepatitis C virus subtype 1b
Salmonella typhimurium = experiment: Mutagenicity in Salmonella typhimurium by Ames test; format: toxicity, organism-based; conditions: salmonella enterica subsp. enterica serovar typhimurium
Hepatitis C virus [6] = experiment: Antiviral activity against HCV genotype 1a infected in human HuH7 cells assessed as inhibition of viral replication after 72 hrs by RT-PCR method; format: functional, organism-based, Hepacivirus hominis; conditions: subtype 1a, Huh-7, 72 h
[7] = Inhibition of HCV genotype 1b full length NS3/4A protease using Ac-C(Eu)DDMEEAbu[COO]ASK(QSY7)-amide as substrate preincubated for 30 mins followed by substrate addition measured after 2.5 hrs by TRF assay; set-up: species or system Hepatitis C virus subtype 1b
Hepatitis C virus [8] = experiment: Antiviral activity against HCV genotype 1b infected in human HuH7 cells assessed as inhibition of viral replication after 72 hrs by RT-PCR method; format: functional, organism-based, Hepacivirus hominis; conditions: Huh-7, 72 h
Rattus norvegicus [9] = species: Rattus norvegicus; experiment: Protein binding in rat; format: ADME, organism-based; conditions: in vivo
Canis familiaris [10] = experiment: Toxicity in telemetered dog up to 40 mg/kg; format: organism-based, Canis lupus familiaris; conditions: in vivo
[11] = Oral bioavailability in rat at 5 mg/kg; format: ADME, organism-based; conditions: in vivo
Liver = experiment: Drug uptake in rat liver at 40 mg/kg/day; format: ADME, organism-based; conditions: in vivo, read-out: Drug uptake
Rattus norvegicus [12] = experiment: Hepatotoxicity in rat at 134 uM measured for 3 days of dosing; format: toxicity, organism-based; conditions: in vivo, 72 h
Canis familiaris [13] = experiment: Toxicity in conscious telemetered dog assessed as effect on ECG parameters; format: organism-based, Canis lupus familiaris; conditions: in vivo
Cytochrome P450 3A4 = Cytochrome P450 3A4 (Homo sapiens, UniProt P08684); experiment: Inhibition of CYP3A4 (unknown origin) up to 50 uM; format: ADME
Hepatitis C virus [14] = experiment: Antiviral activity against HCV genotype 1a infected in human HuH7 cells assessed as inhibition of viral replication after 72 hrs by RT-PCR method in presence of 100% normal human serum; format: functional, Hepacivirus hominis; conditions: subtype 1a, Huh-7, 72 h
Cytochrome P450 2C8 = target: T1, Cytochrome P450 2C8 (Homo sapiens, UniProt P10632); experiment: Inhibition of CYP2C8 (unknown origin) up to 20 uM; format: ADME
T1 sequence (P10632 whole entry): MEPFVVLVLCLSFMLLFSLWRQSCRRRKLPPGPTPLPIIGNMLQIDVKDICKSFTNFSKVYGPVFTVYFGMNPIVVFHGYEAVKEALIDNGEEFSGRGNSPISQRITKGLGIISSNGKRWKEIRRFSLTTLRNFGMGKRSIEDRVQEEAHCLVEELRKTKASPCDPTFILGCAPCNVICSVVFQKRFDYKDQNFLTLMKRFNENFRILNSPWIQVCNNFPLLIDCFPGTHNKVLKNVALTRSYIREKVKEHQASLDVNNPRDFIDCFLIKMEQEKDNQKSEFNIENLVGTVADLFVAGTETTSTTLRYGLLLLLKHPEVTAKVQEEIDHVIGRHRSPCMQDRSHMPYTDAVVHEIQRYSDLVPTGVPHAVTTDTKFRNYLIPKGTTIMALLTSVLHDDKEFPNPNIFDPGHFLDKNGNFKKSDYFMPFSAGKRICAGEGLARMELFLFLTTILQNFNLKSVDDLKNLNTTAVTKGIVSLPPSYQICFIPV

Canis familiaris [15] = species: Canis familiaris; experiment: Protein binding in dog; format: ADME, organism-based, Canis lupus familiaris; conditions: in vivo
[16] = Inhibition of HCV genotype 1b NS3/4A protease A156T mutant using Ac-C(Eu)DDMEEAbu[COO]ASK(QSY7)-amide as substrate preincubated for 30 mins followed by substrate addition measured after 2.5 hrs by TRF assay; set-up: species or system Hepatitis C virus subtype 1b
Canis familiaris [17] = experiment: Toxicity in conscious telemetered dog assessed as effect on heart rate; format: organism-based, Canis lupus familiaris; conditions: in vivo
[18] = target: Hepatitis C virus serine protease, NS3/NS4A (Hepatitis C virus, UniProt A3EZI9+D2K2A8, R155K); experiment: Inhibition of HCV genotype 1b NS3/4A protease R155K mutant using Ac-C(Eu)DDMEEAbu[COO]ASK(QSY7)-amide as substrate preincubated for 30 mins followed by substrate addition measured after 2.5 hrs by TRF assay; set-up: species or system Hepatitis C virus subtype 1b
Hepatitis C virus [19] = experiment: Antiviral activity against HCV genotype 3a infected in human HuH7 cells assessed as inhibition of viral replication after 72 hrs by RT-PCR method; format: functional, organism-based, Hepacivirus hominis; conditions: Huh-7, 72 h
Hepatitis C virus [20] = experiment: Antiviral activity against HCV genotype 2b infected in human HuH7 cells assessed as inhibition of viral replication after 72 hrs by RT-PCR method; format: functional, organism-based, Hepacivirus hominis; conditions: Huh-7, 72 h
[21] = Inhibition of HCV genotype 1a NS3/4A protease using Ac-C(Eu)DDMEEAbu[COO]ASK(QSY7)-amide as substrate preincubated for 30 mins followed by substrate addition measured after 2.5 hrs by TRF assay; set-up: species or system Hepatitis C virus subtype 1a
Rattus norvegicus [22] = experiment: Toxicity in telemetered rat up to 40 mg/kg; format: organism-based; conditions: in vivo
Hepatitis C virus [23] = experiment: Antiviral activity against HCV genotype 1b infected in human HuH7 cells assessed as inhibition of viral replication after 72 hrs by RT-PCR method in presence of 100% normal human serum; format: functional, Hepacivirus hominis; conditions: Huh-7, 72 h
Rattus norvegicus [24] = experiment: Toxicity in rat at 40 mg/kg/day measured for 3 days of dosing; format: organism-based; conditions: in vivo, 72 h
Hepatitis C virus [25] = experiment: Antiviral activity against HCV genotype 2a infected in human HuH7 cells assessed as inhibition of viral replication after 72 hrs by RT-PCR method; format: functional, organism-based, Hepacivirus hominis; conditions: Huh-7, 72 h
Canis familiaris [26] = experiment: Toxicity in conscious telemetered dog assessed as effect on blood pressure; format: organism-based, Canis lupus familiaris; conditions: in vivo
Hepatitis C virus [27] = experiment: Antiviral activity against HCV genotype 3a infected in human HuH7 cells assessed as inhibition of viral replication after 72 hrs by RT-PCR method in presence of 100% normal human serum; format: functional, Hepacivirus hominis; conditions: Huh-7, 72 h
[28] = Inhibition of HCV genotype 1b NS3/4A protease A156V mutant using Ac-C(Eu)DDMEEAbu[COO]ASK(QSY7)-amide as substrate preincubated for 30 mins followed by substrate addition measured after 2.5 hrs by TRF assay; set-up: species or system Hepatitis C virus subtype 1b
Hepatitis C virus [29] = experiment: Antiviral activity against HCV genotype 2a infected in human HuH7 cells assessed as inhibition of viral replication after 72 hrs by RT-PCR method in presence of 100% normal human serum; format: functional, Hepacivirus hominis; conditions: Huh-7, 72 h
[30] = Oral bioavailability in dog at 1 mg/kg; format: ADME, organism-based, Canis lupus familiaris; conditions: in vivo

- AUC(0-t) at 24 h [1]: 2.3 µM·h
- IC50 [2]: 1.33 nM
Compound: COc1ccc2nc(C3CC3)c3c(c2c1)CC[C@]1(C[C@H]2C(=O)N[C@]4(C(=O)NS(=O)(=O)C5(C)CC5)C[C@H]4/C=C\CCCCC[C@H](NC(=O)OCC(C)C)C(=O)N2C1)O3

Compound: COc1ccc2nc(C(F)(F)F)c3c(c2c1)CC[C@]1(C[C@H]2C(=O)N[C@]4(C(=O)NS(=O)(=O)C5(C)CC5)C[C@H]4/C=C\CCCCC[C@H](NC(=O)OCC(C)C)C(=O)N2C1)O3
- Activity (Canis familiaris [3]): Non-toxic
- inhibition (INH) (Cytochrome P450 2D6): Not Active
- Activity (Canis familiaris [4]): Non-toxic
- inhibition (INH) (Cytochrome P450 2C9): Not Active
- IC50 [5]: 0.023 nM
- Activity (Salmonella typhimurium): Non-toxic
- EC50 (Hepatitis C virus [6]): 0.7 nM
- IC50 [7]: 0.004 nM
- EC50 (Hepatitis C virus [8]): 0.8 nM
- PB (Rattus norvegicus [9]): Active
- Activity (Canis familiaris [10]): Non-toxic
- bioavailability [11]: 31%
- concentration (Liver): 134 µM
- Activity (Rattus norvegicus [12]): Non-toxic
- Activity (Canis familiaris [13]): Non-toxic
- inhibition (INH) (Cytochrome P450 3A4): Not Active
- EC90 (Hepatitis C virus [14]): 68 nM
- inhibition (INH) (Cytochrome P450 2C8): Not Active
- PB (Canis familiaris [15]): Active
- IC50 [16]: 0.483 nM
- Activity (Canis familiaris [17]): Non-toxic
- IC50 [18]: 0.01 nM
- EC50 (Hepatitis C virus [19]): 1.7 nM
- AUC(0-t) at 24 h [1]: 9 µM·h
- EC50 (Hepatitis C virus [20]): 3.4 nM
- IC50 [21]: 0.009 nM
- Activity (Rattus norvegicus [22]): Non-toxic
- EC90 (Hepatitis C virus [23]): 20 nM
- Activity (Rattus norvegicus [24]): Non-toxic
- EC50 (Hepatitis C virus [25]): 0.9 nM
- Activity (Canis familiaris [26]): Non-toxic
- IC50 [2]: 0.41 nM
- EC90 (Hepatitis C virus [27]): 90 nM
- IC50 [28]: 2.76 nM
- EC90 (Hepatitis C virus [29]): 60 nM
- bioavailability [30]: 17%

- AUC(0-t) at 24 h [1]: 2 µM·h
- IC50 [2]: 13 nM
Compound: CC(C)(C)OC(=O)N[C@H]1CCCCC/C=C\[C@@H]2C[C@@]2(C(=O)NS(=O)(=O)C2(C)CC2)NC(=O)[C@@H]2C[C@]3(CCc4c(c(C5CC5)nc5ccccc45)O3)CN2C1=O

- AUC(0-t) at 24 h [1]: 0.13 µM·h
- IC50 [2]: 0.18 nM
Compound: COc1ccc2nc(C)c3c(c2c1)CC[C@]1(C[C@H]2C(=O)N[C@]4(C(=O)NS(=O)(=O)C5(C)CC5)C[C@H]4/C=C\CCCCC[C@H](NC(=O)OCC(C)C)C(=O)N2C1)O3

- AUC(0-t) at 24 h [1]: 2 µM·h
- IC50 [2]: 0.27 nM
Compound: COc1ccc2nc(C(F)(F)F)c3c(c2c1)CC[C@]1(C[C@H]2C(=O)N[C@]4(C(=O)NS(=O)(=O)C5(C)CC5)C[C@H]4/C=C\CCCCC[C@H](NC(=O)OC(C)(C)C)C(=O)N2C1)O3
